# Assay results published in patent US10568897B2, “Bidens pilosa and polyacetylenic compounds for prevention and treatment of coccidiosis” (ACADEMIA SINICA, priority 2011, dated 2020).
# Test system: E. tenella
# Assay: Eimeria infection (coccidiosis) in chickens: survival, body weight, clinical symptoms, gut lesions, excreted oocysts
# Assay type: in vivo
# Conditions: for Body weight Day 21: diet with 6 mg/kg maduramicin or 50 g/kg BPP for 7 days, 6 mg/kg
# Protocol: FIGS. 3 A-F show the effect of BPP on the survival rate (FIG. 3A), sick bird appearance (FIG. 3B) and clinical symptoms (FIG. 3C) in the chickens. One-day-old chickens were fed with control diet for 14 days. On day 14, the birds were infected with vehicle (CTR) or E. tenella (ET) and fed with control diet (CTR and ET groups) and the diet containing 6 mg/kg maduramicin (ET+Mad), or 5%, or 1%, or 0.5% of BPP (ET+BPP) for additional 7 days. After the birds were sacrificed, the cecum was dissected and fixed for hematoxylin and eosin Y staining. The representative images of cecal hemorrhagic lesions (FIG. 3D) and histopathology (FIG. 3E) are shown.
# One-d-old Lohmann broiler chicks hatched at Taichung Hatchery (Taiwan) were wing-banded upon arrival, weighed, and randomly placed in Petersime starter brooder units. At 1 and 2 d post-hatch, the birds were given free access to water and diets. The diets were formulated by mixing the base diet (Chicken feed, Taiwan Sugar Corporation) with carrier alone (control diet) or the indicated dose of B. pilosa power (BPP diet). In case of cytopiloyne experiments, the animal was administered with 45 μg of isolated cytopiloyne each day. After grouping, birds were tube-fed with Eimeria oocysts. Growth performance (body weight and feed conversion), pathology (bloody droppings and gut morphometry) and survival rate were measured and examined. All birds were maintained in the institutional animal facility and handled according to the guidelines of the Academia Sinica Institutional Animal Care and Utilization Committee.
# Since B. pilosa was claimed to treat protozoan and bacterial infections, we tested whether B. pilosa could protect the chickens from coccidiosis. To this end, we infected the […] birds with vehicle and Eimeria oocysts. The birds were given control diet, the control diet mixed with maduramicin, a commercial anti-coccidial, and 10% BPP diet. […] In contrast, 60% of the birds with Eimeria infection survived 7 days post-infection (FIG. 3A). However, treatment with a dose (6 mg/k) of maduramicin and a dose (50 g/kg) of […] BPP increased the survival rate of the birds with Eimeria infection by 30% (FIG. 3A). […] However, treatment with maduramicin and BPP increased body weight from 132.5 g to 145.4 g and 154.3 g. respectively (Table 2). […] One-d-old chickens were fed with control diet for 14 days. On day 14, the birds were infected with vehicle (CTR) or E. tenella (ET) and fed with control diet (CTR and ET groups) and the diet containing 6 mg/kg maduramicin (ET+Mad) or 50 g/kg BPP (E+T BPP) for additional 7 days. Body weight was measured. The number of the birds in each group is indicated in the parentheses.
# Next, we checked clinical symptoms of the chickens with or without Eimeria infection. […] In contrast, the birds with Eimeria infection show the typical sick bird appearances (FIG. 3B). […] In contrast, treatment with maduramicin or BPP reduced bloody droppings and diarrhea (FIG. 3C).
# The gut lesions of the birds 7 days post-infection were also examined. Hemorrhagic lesions in the cecum of the birds infected with Eimeria oocysts were observed (FIG. 3D). In contrast, treatment with maduramicin and BPP alleviated the severity of hemorrhagic lesions (FIG. 3D).
# The excretion of oocysts is an important indicator of the efficacy of anti-coccidial drug. Thus, we assessed the number of excreted oocysts from the chickens with Eimeria infection. […] The data on the effect of BPP on the reduction of the excreted oocysts are consistent with the alleviation of the clinical symptoms by BPP. […] One-d-old chickens were fed with control diet for 14 days. On day 14, the birds were infected with vehicle (CTR) or E. tenella (ET) and fed with control diet (CTR and ET groups) and the diet containing 6 mg/kg maduramicin (ET+Mad) or 50 g/kg BPP (ET+BPP) for additional 7 days. The number of the excreted oocysts in the feces (oocysts per gram) of the birds was determined. […]
# [1] = E. tenella infected on day 14, diet with 6 mg/kg maduramicin or 50 g/kg BPP
# [2] = Eimeria infected birds given diet with maduramicin or BPP
compound,measurement,setting,value
"CO[C@@H]1[C@@H](OC)[C@H](C)[C@@](O)(CC(=O)O)O[C@H]1[C@H](C)[C@H]1O[C@@]2(CC[C@@](C)([C@H]3CC[C@@](C)([C@@H]4O[C@@H]([C@H]5O[C@](C)(O)[C@H](C)C[C@@H]5C)C[C@@H]4O[C@@H]4C[C@H](OC)[C@@H](OC)[C@H](C)O4)O3)O2)C[C@H](O)[C@H]1C [maduramicin, Maduramicin]",Number of the excreted oocysts in the infected birds,6 mg/kg maduramicin or 50 g/kg BPP diet,reduced half
same,Severity of hemorrhagic lesions in the cecum,7 days post-infection,alleviated
same,Number of villi and depth of crypts in the gut,"7 days post-infection, histostaining",increased
same,Excreted oocysts in the feces Day 4,[1],5 ± 0.3 oocysts per gram
same,Excreted oocysts in the feces Day 5,[1],78 ± 3.8 oocysts per gram
same,Excreted oocysts in the feces Day 6,[1],187 ± 4.7 oocysts per gram
same,Excreted oocysts in the feces Day 7,[1],343 ± 52.2 oocysts per gram
same,Body weight Day 21,E. tenella infected on day 14,145.4 g
same,Body weight Day 21,"E. tenella infected on day 14, listed as Mad",145.4 ± 6.2 g
same,Bloody droppings and diarrhea,[2],reduced
same,"Sick bird appearance (droopiness, listlessness, ruffled feather)",[2],no obvious sick bird appearance
